Data on 25 compounds can be found in US20210393623A1 (Jacobio Pharmaceuticals Co., Ltd., priority 2018, published 2021).

The experiment addresses T1, SHP2 (Homo sapiens, UniProt Q06124).
T1 sequence (Q06124 1-593): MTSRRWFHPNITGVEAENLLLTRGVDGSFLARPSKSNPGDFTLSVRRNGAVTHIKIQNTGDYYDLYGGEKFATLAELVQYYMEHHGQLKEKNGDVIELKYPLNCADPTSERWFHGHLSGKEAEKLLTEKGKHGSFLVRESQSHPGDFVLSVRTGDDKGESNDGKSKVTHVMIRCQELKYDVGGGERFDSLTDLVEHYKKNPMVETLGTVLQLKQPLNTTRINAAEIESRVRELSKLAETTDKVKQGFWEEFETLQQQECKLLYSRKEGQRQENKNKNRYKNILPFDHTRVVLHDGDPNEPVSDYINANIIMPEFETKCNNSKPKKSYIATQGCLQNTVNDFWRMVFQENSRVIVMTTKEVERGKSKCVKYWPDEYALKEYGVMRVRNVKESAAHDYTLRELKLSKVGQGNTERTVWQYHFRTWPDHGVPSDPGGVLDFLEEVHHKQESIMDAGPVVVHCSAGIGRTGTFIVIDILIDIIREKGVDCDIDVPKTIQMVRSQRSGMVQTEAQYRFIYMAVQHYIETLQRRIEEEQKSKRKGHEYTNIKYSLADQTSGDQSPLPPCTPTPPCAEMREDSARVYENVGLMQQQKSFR
Nature of the experiment: Phosphatase Assay (Single Dose Inhibition). The experiment is classed as biochemical. To be noted: compound at 0.02 μM (20nM); DiFMUP substrate 12 μM; SHP2 0.5 nM activated with dPEG8 peptide; DMSO control set to 100%; triplicate. As for the experimental part:
Phosphatase Assay (Single Dose Inhibition) Assay Protocol: For single dose inhibition assays using 6,8-difluoro-4-methylumbelliferyl phosphate (DiFMUP) as a substrate, SHP2 samples (diluted to 0.5 nM in reaction buffer) were incubated with dPEG8 peptide for 30 min in reaction buffer[60 mM 3,3-dimethyl glutarate (pH7.2), 75 mM NaCl, 75 mM KCl, and 1 mM EDTA, 0.05% Tween 20, 2mM dithiothreitol (DTT) ] to active the PTP. DMSO [0.5% (v/v)] or compounds (20nM) were added to the mixture and incubated for 30 min at room temperature. Reactions were initiated by the addition of DiFMUP (12 μM; total reaction volume of 100 μL), and the fluorescence (excitation at 340 nm, emission at 450 nm) of the resulting solutions was measured on a 2104-0020 EnVision Xcite Multilabel Reader (PerkinElmer) after 30min. The experiment is carried out in triplicate. The value for the control sample (DMSO) was set to 100%, and the values for the compound-treated samples were expressed as activity relative to the control sample.
Take `Nc1nccc(Sc2ccc(N3CCC4(CC3)Cc3ncccc3[C@H]4N)cn2)c1Cl` [Example 33, (S)-1′-(6-((2-amino-3-chloropyridin-4-yl)thio)pyridin-3-yl)-5,7-dihydrospiro[cyclopenta[b]pyridine-6,4′-piperidin]-5-amine]: at 0.02 µM the inhibition was 70%.

With `Cc1cccc(-c2ncc(N3CCC4(CC3)Cc3ccc(N)cc3[C@H]4N)nc2N)c1Cl` [Example 47, (S)-1′-(6-amino-5-(2-chloro-3-methylphenyl)pyrazin-2-yl)-1,3-dihydrospiro[indene-2,4′-piperidine]-1,6-diamine], at 0.02 µM the inhibition was 56%.

On to `N#Cc1nc(Sc2cccc(Cl)c2Cl)c(N)nc1N1CCC2(CC1)Cc1ncccc1[C@H]2N` [Example 30, (S)-5-amino-3-(5-amino-5,7-dihydrospiro[cyclopenta[b]pyridine-6,4′-piperidin]-1′-yl)-6-((2,3-dichlorophenyl)thio)pyrazine-2-carbonitrile], for which the inhibition at 0.02 µM came out at 80%.

Take `Cn1c(N2CCC3(CC2)Cc2ccc(F)cc2[C@H]3N)nc2[nH]nc(-c3cccc(Cl)c3Cl)c2c1=O` [Example 37, (S)-6-(1-amino-6-fluoro-1,3-dihydrospiro[indene-2,4′-piperidin]-1′-yl)-3-(2,3-dichlorophenyl)-5-methyl-1,5-dihydro-4H-pyrazolo[3,4-d]pyrimidin-4-one]: the inhibition at 0.02 µM was 68%.

For the compound `NC(=O)c1nc(Sc2cccc(Cl)c2Cl)c(N)nc1N1CCC2(CC1)Cc1ncccc1[C@H]2N` [Example 31, (S)-5-amino-3-(5-amino-5,7-dihydrospiro[cyclopenta[b]pyridine-6,4′-piperidin]-1′-yl)-6-((2,3-dichlorophenyl)thio)pyrazine-2-carboxamide], testing at 0.02 µM gave an inhibition of 82%.

Turning to `Cc1nc(N2CCC3(CC2)Cc2ncccc2[C@H]3N)c(C(N)=O)nc1-c1cccc(Cl)c1Cl` [Example 27, (S)-3-(5-amino-5,7-dihydrospiro[cyclopenta[b]pyridine-6,4′-piperidin]-1′-yl)-6-(2,3-dichlorophenyl)-5-methylpyrazine-2-carboxamide], the inhibition at 0.02 µM was found to be 79%.

Take `Nc1nc(N2CCC3(CC2)Cc2ncccc2[C@H]3N)c(Br)nc1Sc1cccc(Cl)c1Cl` [Example 29, (S)-1′-(6-amino-3-bromo-5-((2,3-dichlorophenyl)thio)pyrazin-2-yl)-5,7-dihydrospiro[cyclopenta[b]pyridine-6,4′-piperidin]-5-amine]: the inhibition at 0.02 µM was 68%.

As for `Cc1ccc(-c2n[nH]c3nc(N4CCC5(CC4)Cc4cc(F)c(F)c(F)c4[C@H]5N)n(C)c(=O)c23)s1` [Example 38, (S)-6-(1-amino-5,6,7-trifluoro-1,3-dihydrospiro[indene-2,4′-piperidin]-1′-yl)-5-methyl-3-(5-methylthiophen-2-yl)-1,5-dihydro-4H-pyrazolo[3,4-d]pyrimidin-4-one], 0.02 µM produced 53% inhibition.

As to `Nc1nc(N2CCC3(CC2)Cc2ncccc2[C@H]3N)ccc1Sc1ccnc(N)c1Cl` [Example 32, (S)-1′-(6-amino-5-((2-amino-3-chloropyridin-4-yl)thio)pyridin-2-yl)-5,7-dihydrospiro[cyclopenta[b]pyridine-6,4′-piperidin]-5-amine], the inhibition at 0.02 µM came out at 75%.

As for “ethyl (S)-3-(1-amino-1,3-dihydrospiro[indene-2,4′-piperidin]-1′-yl)-6-(2,3-dichlorophenyl)-5--2-carboxylate [Example 1]”, the “SHP2 inhibition(%)” value came to 82%.

Take `Cc1nc(N2CCC3(CC2)Cc2ncccc2[C@H]3N)cnc1-c1cccc(Cl)c1Cl` [Example 2, (S)-1′-(5-(2,3-dichlorophenyl)-6-methylpyrazin-2-yl)-5,7-dihydrospiro[cyclopenta[b]pyridine-6,4′-piperidin]-5-amine]: at 0.02 µM the inhibition was 80%.

Take `N[C@@H]1c2cccnc2CC12CCN(c1nc3[nH]cc(-c4cccc(Cl)c4Cl)c3c(=O)[nH]1)CC2` [Example 39, (S)-2-(5-amino-5,7-dihydrospiro[cyclopenta[b]pyridine-6,4′-piperidin]-1′-yl)-5-(2,3-dichlorophenyl)-3,7-dihydro-4H-pyrrolo[2,3-d]pyrimidin-4-one]: the inhibition at 0.02 µM was 78%.

`Cc1nc(N2CCC3(CC2)Cc2ccccc2[C@H]3N)c(CO)nc1Sc1ccnc(N)c1Cl` [Example 24, (S)-(3-(1-amino-1,3-dihydrospiro[indene-2,4′-piperidin]-1′-yl)-6-((2-amino-3-chloropyridin-4-yl)thio)-5-methylpyrazin-2-yl)methanol] returned an inhibition at 0.02 µM of 87%.

`COc1nccc(Sc2cnc(N3CCC4(CC3)Cc3ccc(SC)cc3[C@H]4N)cn2)c1Cl` [Example 19, (S)-1′-(5-((3-chloro-2-methoxypyridin-4-yl)thio)pyrazin-2-yl)-6-(methylthio)-1,3-dihydrospiro[indene-2,4′-piperidin]-1-amine] returned an inhibition at 0.02 µM of 61%.

`CC(C)Nc1nccc(Sc2cnc(N3CCC4(CC3)Cc3ccc(S(C)(=O)=O)cc3[C@H]4N)cn2)c1Cl` [Example 21, (S)-1′-(5-((3-chloro-2-(isopropylamino)pyridin-4-yl)thio)pyrazin-2-yl)-6-(methylsulfonyl)-1,3-dihydrospiro[indene-2,4′-piperidin]-1-amine] displayed an inhibition at 0.02 µM of 68%.

For `Cc1cccc(-c2ncc(N3CCC4(CC3)Cc3ccc(Br)cc3[C@H]4N)nc2N)c1Cl` [Example 45, (S)-1′-(6-amino-5-(2-chloro-3-methylphenyl)pyrazin-2-yl)-6-bromo-1,3-dihydrospiro[indene-2,4′-piperidin]-1-amine], the inhibition at 0.02 µM is 78%.

`N#Cc1cnc2c(c1)[C@@H](N)C1(CCN(c3ccc(Sc4ccnc(N)c4Cl)cn3)CC1)C2` [Example 15, (S)-5-amino-1′-(5-((2-amino-3-chloropyridin-4-yl)thio)pyridin-2-yl)-5,7-dihydrospiro[cyclopenta[b]pyridine-6,4′-piperidine]-3-carbonitrile] displayed an inhibition at 0.02 µM of 64%.

`Nc1nc(N2CCC3(CC2)Cc2ncccc2[C@H]3N)ncc1Sc1ccnc(N)c1Cl` [Example 8, (S)-1′-(4-amino-5-((2-amino-3-chloropyridin-4-yl)thio)pyrimidin-2-yl)-5,7-dihydrospiro[cyclopenta[b]pyridine-6,4′-piperidin]-5-amine] displayed an inhibition at 0.02 µM of 68%.

Turning to `N[C@@H]1c2ccccc2CC12CCN(c1cnc3c(N4CCCc5ncccc54)n[nH]c3n1)CC2` [Example 50, (S)-1′-(3-(3,4-dihydro-1,5-naphthyridin-1(2H)-yl)-1H-pyrazolo[3,4-b]pyrazin-6-yl)-1,3-dihydrospiro[indene-2,4′-piperidin]-1-amine], the inhibition at 0.02 µM is 86%.

For `Cc1nc(N2CCC3(CC2)Cc2ccccc2[C@H]3N)c(CO)nc1-c1cccc(Cl)c1Cl` [Example 23, (S)-(3-(1-amino-1,3-dihydrospiro[indene-2,4′-piperidin]-1′-yl)-6-(2,3-dichlorophenyl)-5-methylpyrazin-2-yl)methanol], the inhibition at 0.02 µM amounted to 85%.

Compound `Cc1nc(N2CCC3(CC2)Cc2ncccc2[C@H]3N)c(O)nc1-c1cccc(Cl)c1Cl` [Example 28, (S)-3-(5-amino-5,7-dihydrospiro[cyclopenta[b]pyridine-6,4′-piperidin]-1′-yl)-6-(2,3-dichlorophenyl)-5-methylpyrazin-2-ol] returned an inhibition at 0.02 µM of 74%.

The compound `Cn1c(N2CCC3(CC2)Cc2ncccc2[C@H]3N)nc2[nH]nc(-c3cccc(Cl)c3Cl)c2c1=O` [Example 36, (S)-6-(5-amino-5,7-dihydrospiro[cyclopenta[b]pyridine-6,4′-piperidin]-1′-yl)-3-(2,3-dichlorophenyl)-5-methyl-1,5-dihydro-4H-pyrazolo[3,4-d]pyrimidin-4-one] had an inhibition at 0.02 µM of 88%.

Compound `Cc1nc(N2CCC3(CC2)Cc2ccccc2[C@H]3N)cnc1Sc1ccnc(N)c1Cl` [Example 6, (S)-1′-(5-((2-amino-3-chloropyridin-4-yl)thio)-6-methylpyrazin-2-yl)-1,3-dihydrospiro[indene-2,4′-piperidin]-1-amine] displayed an inhibition at 0.02 µM of 89%.

Regarding `Cc1nc(N2CCC3(CC2)Cc2ncccc2[C@H]3N)c(C#N)nc1-c1cccc(Cl)c1Cl` [Example 26, (S)-3-(5-amino-5,7-dihydrospiro[cyclopenta[b]pyridine-6,4′-piperidin]-1′-yl)-6-(2,3-dichlorophenyl)-5-methylpyrazine-2-carbonitrile], at 0.02 µM the inhibition was 67%.

Take `Cn1c(N2CCC3(CC2)Cc2ccccc2[C@H]3N)nc(N)c(Sc2ccnc(N)c2Cl)c1=O` [Example 40]: the inhibition at 0.02 µM is 68%.
